In one data set the test system is Plasmodium falciparum. The data set is described as follows: Antiplasmodial activity against asexual Plasmodium falciparum 3D7 infected in human erythrocytes assessed as reduction in parasitemia measured after 72 hrs by LDH assay. The format is functional, organism-based. To be noted: 3D7, Erythrocyte.
The next data set deals with HeLa. Nature of the data set: Cytotoxicity against human HeLa cells assessed as cell growth inhibition at 10 uM measured after 72 hrs by MTT assay. It counts as cell-based. A general note: Formazan colour is commonly taken as a measure of viable cells.
The next data set deals with HL-60. The data set is described as follows: Cytotoxicity against human HL-60 cells assessed as cell growth inhibition at 10 uM measured after 72 hrs by MTT assay. To be noted: hl-60, 72 h. The format is cell-based.
Data set [1] deals with Trypanosoma brucei rhodesiense. Nature of the data set: Antitrypanosomal activity against Trypanosoma brucei rhodesiense IL-1501 assessed as parasite growth inhibition incubated for 69 hrs by AlamarBlue assay. It counts as functional, organism-based. To be noted: IL-1501, 69 h.

The IC50 is the concentration at which inhibition is half-maximal. Take `CC[C@H](C)[C@H](C(=O)N[C@@H](CCC(N)=O)C(=O)N[C@H](C(=O)N(C)[C@H](Cc1ccccc1)C(=O)N1CCC[C@H]1C(=O)OC)C(C)C)N(C)C(=O)[C@H](CC(C)C)NC(=O)CC[C@H](C)CCCCNC(=O)CCCc1ccc(O)cc1`: the IC50 in the data set with Plasmodium falciparum is 960 nM; in data set [1] it was 2900 nM. Further, the Activity entry in the data set with HeLa and in the data set with HL-60 was “Non-Toxic” throughout.
Turning to `CC[C@H](C)[C@H](C(=O)N[C@@H](CCC(N)=O)C(=O)N[C@H](C(=O)N(C)[C@H](Cc1ccccc1)C(=O)N1CCC[C@H]1C(=O)OC)C(C)C)N(C)C(=O)[C@H](CC(C)C)NC(=O)CC[C@@H](C)CCCCNC(=O)CCCc1ccc(O)cc1`, the 50% inhibitory concentration (IC50) in the data set on Plasmodium falciparum was 870 nM; in data set [1] it was 4400 nM. In addition, the Activity entry with HeLa and with HL-60 was “Non-Toxic” in each case.
With `O=C1C(O)=C([C@H]2CC[C@H](c3ccc(Cl)cc3)CC2)C(=O)c2ccccc21` [ATOVAQUONE], in the data set on Plasmodium falciparum, the half-maximal inhibitory concentration (IC50) was determined as 0.96 nM.
Regarding `N=C(N)c1ccc(OCCCCCOc2ccc(C(=N)N)cc2)cc1` [PENTAMIDINE], the IC50 in data set [1] was 1 nM.

Source of the values: ChEMBL document CHEMBL4813929, “Isolation, Structure Determination, and Total Synthesis of Hoshinoamide C, an Antiparasitic Lipopeptide from the Marine Cyanobacterium Caldora penicillata” (J Nat Prod, 2021).
